Assay results published in US4225619A, “Substituted fluoracylresorcinols” (Boehringer Ingelheim GmBH, priority 1976, dated 1980).
Converted amounts (≈) assume the structure as drawn. Like-named read-outs stand apart in the source and are kept apart here.

Legend:
[1] = Acute toxicity in mice (LD50); conditions: mouse, in vivo, death within 14 days
Experimental: The acute toxicity was determined with mice. The LD50, the dose leading to the death of 50% of the animals within 14 days, was calculated.

[2] = tested on: Staphylococcus aureus SG 511; assay: Serial dilution test; assay type: cell-based; conditions: Staphylococcus aureus, SG511, 18-20 hours at 37° C., read-out: MIC, S.D.T., Staphylococcus aureus SG 511
Experimental: (§1) The inhibitory effect on bacteria and fungi was examined by the serial dilution test and the agar diffusion test (hole-test). As bacteria were used: Staphylococcus aureus SG 511, Streptococcus Aronson, Streptococcus pyogenes At CC 86 68; as fungi: Candida albicans AT CC 10231, Trichophyton mentagrophytes AT CC 9129 and Aspergillus niger.
1. Meat extract broth: for St. aureus SG 511
(§2) The age of the primary cultures is 24 hours for bacteria and 14 days for fungi. The standardization of the suspension of microorganisms is effected using a photometer according to Eppendorf (test tube .phi.14 mm, filter 546 nm) and a suspension for comparison consisting of barium sulfate, this suspension being created by adition of 3.0 ml of 1% barium chloride solution to 97 ml of 1% sulfuric acid. After the standardization the bacteria were further diluted to a concentration of 1:1000 by means of sodium chloride solution, the fungi were used in an undiluted state.
(§3) 40 mgm of the substance were put into a 10 ml measuring flask and filled up to the mark with the solvent (corresponds to a dilution of 1:250=4000 μg/ml). The further dilution series was standardized with distilled water or the respective solvent and the following substance concentrations were prepared: 1000; 250; 62.5 μg/ml.
(§4) The tubes were filled with 4.9 ml of the corresponding liquid nutrient medium. Then 0.1 ml of the substance dilution prepared above was added to each tube, so that the mentioned final concentrations were present. Finally each tube was inoculated with 0.1 ml of the standardized suspension of microorganisms. Control tests merely using the solvent are to be carried out simultaneously.
(§5) Bacteria were incubated at 37° C. for 18-20 hours and fungi at 27° C. for 7 days.
(§6) The measurement is carried out macroscopically defining the minimal inhibitory concentration (the lowest still microbiostatically effective concentration).

[3] = tested on: Staphylococcus aureus SG 511; assay: Agar diffusion test (hole-test); assay type: cell-based; conditions: SG511, 18-20 hours at 37° C., read-out: MIC, A.D.T., Staphylococcus aureus SG 511
Experimental: as §1
1. Meat extract agar: for St. aureus SG 511
as §2, with “addition” for “adition”, “St. aureus SG 511 was” for “the bacteria were further”, “diluted” for “diluted to a concentration of”, “1:1000 and Sc. pyogenes and Aronson 1:100” for “1:1000”, “solution. The” for “solution, the”
(§7) 40 mgm of the substance were put into a 10 ml measuring flask and filled up to the mark with the solvent (corresponds to a dilution of 1:250=4000 μg/ml).
(§8) The dilutions to the concentrations under test were effected with distilled water or the respective solvent.
(§9) 19 ml of the nutrient medium were filled into sterile Petri dishes of a diameter of 8 cm and dried. Subsequently the agar plates were charged with 4 ml of seed agar. 100 ml of seed agar contain 1.25 ml of the suspension of microorganisms, an agar plate thus containing 0.05 ml of the suspension of microorganisms. After solidification of the agar, 5 holes of a diameter of 5 mm were punched into the plates and filled with 0.05 ml of the correspondingly concentrated substance solution.
(§10) Control tests merely using the solvent are to be carried out simultaneously.
as §5
(§11) The diameter of the area of inhibition in mm was measured after having deducted the diameter of the hole.

[4] = tested on: Streptococcus Aronson; assay: Serial dilution test; assay type: cell-based; conditions: Streptococcus, 18-20 hours at 37° C., read-out: MIC, S.D.T., Streptococcus Aronson
Experimental: as §1
(§12) 2. Glucose broth: for Sc. Aronson and St. pyogenes Recipe see meat extract broth. After sterilization 1 weight percent of glucose is added as a sterile 50% solution.
as §2, §3, §4, §5, §6

[5] = tested on: Streptococcus pyogenes At CC 86 68; assay: Serial dilution test; assay type: cell-based; conditions: Streptococcus pyogenes, ATCC8668, 18-20 hours at 37° C., read-out: MIC, S.D.T., Streptococcus pyogenes
Experimental: as §1, §12, §2, §3, §4, §5, §6

[6] = tested on: Streptococcus Aronson; assay: Agar diffusion test (hole-test); assay type: cell-based; conditions: 18-20 hours at 37° C., read-out: MIC, A.D.T., Streptococcus Aronson
Experimental: as §1
(§13) 2. Glucose agar: for Sc. Aronson and St. pyogenes Recipe see meat extract agar. After sterilization 1 weight percent of glucose is added as a sterile 50% solution.
as §2, with “addition” for “adition”, “St. aureus SG 511 was” for “the bacteria were further”, “diluted” for “diluted to a concentration of”, “1:1000 and Sc. pyogenes and Aronson 1:100” for “1:1000”, “solution. The” for “solution, the”
as §7, §8, §9, §10, §5, §11

[7] = tested on: Streptococcus pyogenes At CC 86 68; assay: Agar diffusion test (hole-test); assay type: cell-based; conditions: ATCC8668, 18-20 hours at 37° C., read-out: MIC, A.D.T., Streptococcus pyogenes
Experimental: as §1, §13
as §2, with “addition” for “adition”, “St. aureus SG 511 was” for “the bacteria were further”, “diluted” for “diluted to a concentration of”, “1:1000 and Sc. pyogenes and Aronson 1:100” for “1:1000”, “solution. The” for “solution, the”
as §7, §8, §9, §10, §5, §11

[8] = tested on: Corynebacterium acnes; assay: Serial dilution test for Corynebacterium acnes; assay type: cell-based; conditions: Cutibacterium acnes, 37° C. for 48 hours, read-out: MIC, S.D.T., Corynebacterium acnes
Experimental: Serial dilution test for Corynebacterium acnes and Pityrosporum ovale Nutrient medium
For Corynebacterium acnes: thioglycolate-broth for Pityrosporum ovale: Littmann's broth, 5 ml per tube.
Suspension of microorganisms in 0.9% sodium chloride solution, standardized using a photometer according to Eppendorf by means of a suspension for comparison consisting of barium sulfate, for Corynebacterium acnes in a dilution of 1:100, for Pityrosporum ovale in an undiluted state. 0.1 ml of the suspensions was used per test tube. Dimethyl sulfoxide served as a solvent for the substances.
The suspension with Corynebacteria acnes was incubated at 37° C. for 48 hours, the suspension of Pityrosporum ovale at 27° C. for 7 days. The reading was effected by macroscopic evaluation of the growth of microorganisms and registration of the minimal inhibitory concentration.

[9] = tested on: skin; assay: Compatibility on the skin under occlusion; assay type: in vivo; conditions: cream containing 10%; over 24 hours under occlusion
[10] = tested on: HeLa-cell culture; assay: Inhibition of HeLa cell cultures; assay type: cell-based; conditions: Homo sapiens, 72 h, 37° C. for 3 days, 5% carbon dioxide
Experimental: Measurement of the inhibition of cell cultures
HeLa-cell culture was treated with trypsin and adjusted to a cell number of 150,000 cells/ml of fresh medium. The substance was always dissolved in the same quantity of dimethyl sulfoxide and then further diluted with growth medium. 0.1 ml of the substance-dilutions were added to each well of microtiter plates and then 0.2 ml of cell suspension were added (4 wells per dilution). Several growth controls containing 0.1 ml of growth medium instead of 0.1 ml of substance dilution were put up. After careful mixing, the cultures were incubated at 37° C. for 3 days in a 5% carbon dioxide atmosphere. The reading was effected in comparison with these controls. The results were given as the percentage of the deficiency and degeneration compared to the growth control. […] The statements are referred to μg of substance per ml of total medium.

[11] = tested on: humans; conditions: in some cases; cited from earlier work
[12] = ip, read-out: LD50 in the mouse, i.p.
[13] = po, read-out: LD50 in the mouse, p.o.
[14] = sc, read-out: LD50 in the mouse, s.c.

Row | Compound | LD50 at 336 h [1, 12] [mg/kg] | LD50 at 336 h [1, 13] [mg/kg] | LD50 at 336 h [1, 14] [mg/kg] | MIC [2] [µg/mL] | MIC [3] [µg/mL] | MIC [4] [µg/mL] | MIC [5] [µg/mL] | MIC [6] [µg/mL] | MIC [7] [µg/mL] | MIC [8] [µg/mL] | compatibility on the skin [9] | IC50 ([10]; read-out: ED50, HeLa cell culture) [µg/mL] | minimal effective concentration ([10]; read-out: Minimal inhibitory concentration, HeLa cell culture) [µg/mL] | allergies in humans [11]
1 | CC(C)c1cc(C(=O)C(F)(F)F)c(O)c(Cc2c(O)c(C(=O)C(F)(F)F)cc(C(C)C)c2O)c1O [Compound Q, Methylene-bis-(2,6-dihydroxy-3-isopropyl-5-trifluoro-acetyl)-benzene] | 400 | > 4000 | > 2 | 0.08 (≈ 0.157 µM) | ≤ 15.6 | 1.25 (≈ 2.46 µM) | 0.001 (≈ 0.00197 µM) | ≤ 15.6 | ≤ 15.6 | 0.02 (≈ 0.0393 µM) | – | – | – | –
2 | CCCCCCc1cc(C(=O)C(F)(F)F)c(O)cc1O [Compound E, 2,4-Dihydroxy-5-n-hexyl-trifluoroacetophenone] | 82 | > 3200 | > 4000 | 1.25 (≈ 4.31 µM) | ≤ 15.6 | 0.31 (≈ 1.07 µM) | 0.31 (≈ 1.07 µM) | ≤ 15.6 | ≤ 15.6 | 0.08 (≈ 0.276 µM) | tolerated without irritation | 5.81 (≈ 20 µM) | 0.78 | –
3 | CCCCCCc1ccc(O)cc1O [hexyl-resorcinol] | – | – | – | – | – | – | – | – | – | – | – | – | – | in some cases cause allergies in humans
